Data on 15 compounds can be found in US4070492A, “Propranolol assay” (priority 1977, dated 1978).

Entries after “also recorded” stand apart in the source; their conditions may differ. A value given as a limit tells only on which side of the number the result lay.

In general, half-life refers to the time needed for the level to fall by half in the phase considered. A higher half-life goes with slow decline.

Series [1] concerns antiserum against d,l-propranolol. The experiment in a line: Competition with 3H-propranolol for binding to antiserum against d,l-propranolol (radioimmunoassay specificity). More on the design: species or system rabbit. Particulars: for inhibition of 3H-propranolol binding: at 100 ng; for recognition by antiserum against d,l-propranolol: d- versus l-propranolol. How it is done: (§1) New Zealand albino rabbits were immunized with propranolol-BSA immunogens once a week for 4 weeks and then once every 2 to 4 weeks. The immunogen was dissolved in phosphate-buffered saline (pH 7.4)
(§2) and emulsified with an equal amount of complete Freund's adjuvant. One ml. of emulsion containing 500 μg of immunogen was injected into four foot pads and intramuscularly into both thighs. Bleedings were taken from the central ear artery 6 to 8 days after the third booster injection. Blood was allowed to clot overnight at 4° C. and centrifuged at 2,000 rpm for 15 mintues to separate serum.
(§3) Antisera were diluted in a 2.5% solution of normal rabbit serum in 1:10 phosphate buffered saline. 0.4 ml. of this mixture was added to the assay tubes (10 × 75 mm). 10 μ1. of unknown or standard solutions were added to the tubes. 0.1 ml. of radioactive, d,l-propranolol solution containing 60 pg. (approximately 2,500 cpm) for antiserum against […] and 120 pg. (approximately 5,000 cpm) for antiserum against l-propranolol was subsequently added. The tubes were incubated overnight at 4° C. Antibody bound propranolol was separated by the addition of 0.5 ml. of saturated ammonium sulfate. The pellet was washed once with 0.8 ml. of 50% saturated ammonium sulfate, then dissolved in 0.5 ml. of water and transferred into a counting vial. The tube was washed twice with 3 ml. of Riafluor. Another portion of 6 ml. Riafluor was added to the vial to give a total volume of 12 ml., and the radioactivity was counted in a scintillation counter. The dilutions of the antisera used were 1:10,000 and 1:1000 respectively against d,l-propranolol and l-propranolol.
(§4) The sensitivity of radioimmunoassay for d,l-propranolol and its l-isomer in phosphate-buffered saline and serum were determined.
(§5) ID50 refers to the amount of the compound required to produce 50% inhibition of ^3 H-propranolol-antibody complex formation.

Series [2] relates to antiserum against l-propranolol. Kind of series: Competition with 3H-propranolol for binding to antiserum against l-propranolol (radioimmunoassay specificity). More on the design: species or system rabbit. To be noted: for inhibition of 3H-propranolol binding: at 100 ng. How it is done:
as §1, §2, §3, §4, §5

Series [3] deals with both antisera (against d,l-propranolol and l-propranolol). The experiment in a line: Competition with 3H-propranolol for binding, results stated once for both antisera. To be noted: for recognition / cross-reaction / interference: in words; for inhibition of 3H-propranolol binding: at 100 ng. On the set-up: species or system rabbit. How it is done: as §1, §2, §3, §4, §5
The conditions of series [4]: rat, in vivo, iv, 1 mg/kg.
Series [5] can be described thus: Disposition of propranolol in rats: serum/blood levels by radioimmunoassay. Particulars: rat; for half-life: blood, iv, 1 mg/kg; for disposition in blood: 1 mg/kg racemic propranolol i.v., in words.
Series [6] has as its system heart rate increase caused by isoproterenol. The experiment in a line: Inhibition by propranolol of heart rate increase caused by isoproterenol in anesthetized rats. The class given is in vivo. To be noted: rat, 1 mg/kg i.v.
Text: Increase in heart rate in response to isoproterenol 0.5 g/kg i.v. was compared beforeand at varying time after the administration of propranolol.
Series [7] can be described thus: Disposition of propranolol in rats: heart levels by radioimmunoassay. To be noted: rat, heart, iv, 1 mg/kg.
The subject of the next series is rat heart. The series is described as above. To be noted: 1 mg/kg d,l-propranolol i.v.
The mark [8] stands for this setting: antiserum against l-propranolol.

Take `CC(C)NCC(O)c1ccc(Cl)c(Cl)c1` (stereo not drawn) [dichloroisoproterenol]: the “inhibition of 3H-propranolol binding” value is on record as 13% in series [1] (anti-d,l-propranolol antiserum) and “no inhibition” in series [2] (anti-l-propranolol antiserum). Moreover, the “recognition / cross-reaction / interference” value in series [3] (both antisera) is “not significant recognized by either antisera”.
As for `NCC(O)c1ccc(O)c(O)c1` (stereo not drawn) [norepinephrine], the “inhibition of 3H-propranolol binding” value in series [3] is recorded as “no inhibition”.
As for `CC(C)N` [isopropylamine], the “inhibition of 3H-propranolol binding” value in series [3] is recorded as “no inhibition”. In addition, the “concentration needed for interference with the assay” value in series [3] (both antisera) is “at least 1,000 times greater”.
Regarding `CC(C)NC[C@@H](O)COc1cccc2ccccc12` [d-propranolol], the “ID50 and 95% confidence limits” value in series [1] (anti-d,l-propranolol antiserum, amount for 50% inhibition of 3H-propranolol-antibody complex formation, 95% confidence limits in parentheses) is given as 314 pg. Further, the “recognition by antiserum against d,l-propranolol” value in series [1] is reported as “to the same degree”. Also, the “initial blood level relative to l-propranolol” value in series [4] is on record as “three times higher”. Also, the “amount of l-form as which 100 pg of the d isomer is recognized by the l-antibody” value in series [2] (100 pg of d isomer) was determined as 7 pg. In series [2] (anti-l-propranolol antiserum, amount for 50% inhibition of 3H-propranolol-antibody complex formation, 95% confidence limits in parentheses), the “ID50 and 95% confidence limits” value came out at 1656 pg. Further, the “ID50 relative to that for l-propranolol” value in series [2] (setting [8]) is on record as 14 times. In series [5], the half-life was 23.8 min; the disposition in blood result is “remains in the blood and is metabolized rapidly”.
On to `O=C(O)COc1cccc2ccccc12` [1-naphthoxy acetic acid], for which the entries for the “inhibition of 3H-propranolol binding” value in series [1] (anti-d,l-propranolol antiserum) and in series [2] (anti-l-propranolol antiserum) were 10% and 25%, respectively. In addition, the “concentration needed for interference with the assay” value in series [3] (both antisera) is “at least 1,000 times greater”.
Turning to `Oc1cccc2ccccc12` [1-naphthol], the “inhibition of 3H-propranolol binding” value was 25% in series [1] (anti-d,l-propranolol antiserum) and 45% in series [2] (anti-l-propranolol antiserum). For the same compound, the “concentration needed for interference with the assay” value in series [3] (both antisera) was “at least 1,000 times greater”.
Consider `OCC(O)COc1cccc2ccccc12` (stereo not drawn) [propranolol glycol, 1-(1-naphthoxy)-2,3-propylene glycol], for which, in series [3] (both antisera), the “ID50 relative to values for l-propranolol and d,l-propranolol” value was 9-14 times.
In the case of `CC(C)NCC(O)c1ccc(O)c(O)c1` (stereo not drawn) [isoproterenol], the “inhibition of 3H-propranolol binding” value in series [3] is reported as “no inhibition”. For the same compound, in series [3] (both antisera), the “recognition / cross-reaction / interference” value is recorded as “no cross-reaction”.
As to `Oc1ccc(O)c2ccccc12` [1,4-naphthalene-diol], the “inhibition of 3H-propranolol binding” value is recorded as “no inhibition” in series [1] (anti-d,l-propranolol antiserum) and 17% in series [2] (anti-l-propranolol antiserum). In addition, the “concentration needed for interference with the assay” value in series [3] (both antisera) is “at least 1,000 times greater”.
Take `CC(C)NCC(O)COc1cccc2ccccc12` (racemic) [propranolol]: the disposition in blood result in series [5] is listed as “declines rapidly in the blood following the injection”. Moreover, the “time by which effect on heart rate disappeared” value in series [6] is not above 90 min. For the same compound, the “suppression of increase in heart rate due to isoproterenol” value in series [6] (first 30 minutes after administration) was “markedly suppressed”.
As for `CNCC(O)c1ccc(O)c(O)c1` (stereo not drawn) [epinephrine], in series [3], the “inhibition of 3H-propranolol binding” value is “no inhibition”.
For `CC(C)NC[C@H](O)COc1cccc2ccccc12` [l-propranolol], the “recognition by antiserum against d,l-propranolol” value in series [1] was “to the same degree”. For the same compound, the half-life is 62 min in series [7] and 52 min in series [5]. For the same compound, the “decline in heart compared with blood” value in the series on rat heart (after half an hour) was “almost parallel to that found in the blood”. The “heart uptake / presence in heart” value in the series on rat heart (in words, 1 mg/kg) is “rapid accumulation of l-propranolol by the heart; also recorded: stereospecific uptake of l-propranolol by the rat heart; also recorded: only l-propranolol could be found in the heart”. In series [2] (l-propranolol versus d-isomer), the “selectivity of antiserum against l-propranolol” value is recorded as “able to discriminate the l-propranolol selectively; also recorded: more selectively than the d-isomer”. Besides, the “half-life relative to d-isomer” value in series [5] (1 mg/kg d,l-propranolol i.v.) is given as “almost twice that of the d-isomer”.
As to `CC(C)NCC(O)c1ccc2ccccc2c1` (stereo not drawn) [pronethalol], the “inhibition of 3H-propranolol binding” value in series [1] (anti-d,l-propranolol antiserum) stood at 45%. In addition, the “recognition / cross-reaction / interference” value in series [3] (both antisera) was “not significant recognized by either antisera”.
For the compound `CC(C)NCC(O)COc1ccc(O)c2ccccc12` (stereo not drawn) [4-hydroxy-propranolol], in series [1] (antiserum against d,l-propranolol), the “concentration needed for recognition by the d,l-antibody” value is recorded as not below 70 times greater. The “concentration needed for recognition by the l-antibody” value in series [2] (setting [8]) was not below 35 times greater.
Consider `NCCc1ccc(O)c(O)c1` [dopamine], for which the “inhibition of 3H-propranolol binding” value in series [3] is listed as “no inhibition”.
